The text below walks through data of patent US8058309B2, “Protein kinase modulators and therapeutic uses thereof” (Novotyr Therapeutics Ltd., priority 2006, dated 2011).

Test [1] deals with A2780 tumors. Briefly: Ovarian cancer A2780 xenograft tumor growth. The note with it: for Inhibition of ovarian tumor growth, comparative study: A2780, IP once a day, 20 mg/kg (FIG. 13); for Growth inhibition of ovarian cancer A2780 tumors / Growth inhibition of ovarian A2780 tumors: IP, 1/day; for Growth inhibition of ovarian cancer A2780 tumors: 20 mg/kg (FIG. 12); for Growth inhibition of ovarian A2780 tumors: 50 mg/kg. Type of test: in vivo, nude mice. As for the experimental part: Human hormone-refractory prostate cancer PC3 cells (ATCC, 1.5×10^6 cells per mouse) were injected subcutaneously into the right leg of Nude:Hsd mice (purchased from Harlan). Ten days later, when palpable tumors had developed, mice were divided into 3 groups with similar average tumor size. […] The mice treated with compound 7 group were daily injected with compound 7 dissolved in the below described vehicle, and the vehicle-treated group (veh) was daily injected by the vehicle alone. Vehicle included 4.4% DMSO, 1.2% Ethanol and 50% PEG400 in DDW; Groups were composed of 3 mice per group. Dose administered IP was 50 mg/Kg (4 ml/Kg) once a day for one month. The length (l) and the width (w) of the tumors were measured every day and the volumes of the tumors were calculated as follows: v=1w^2/2. Graphs present average volumes of the tumors versus time in days. The procedure was followed for the other described in-vivo studies with the following modifications:
Human ovary cancer A2780 cells (from ECACC, 2×10^6 cells per mouse) were injected subcutaneously into the right leg of female Nude:Hsd mice (purchased from Harlan). Inhibitors were injected IP daily at doses of 20 mg/kg (Exp. 2&3) or 50 mg/kg (Exp. 4) dissolved in 4.4% DMSO, 0.12% EtOH, 50% PEG-400 in DDW at volume of 4 ml/kg. The Veh group received 4.4% DMSO, 0.12% EtOH, 50% PEG-400 in DDW at volume of 4 ml/kg.

Test [2] has as its system LNCaP. Briefly: Proliferation assay LNCaP. Type of test: cell-based. The note with it: Homo sapiens, Prostate, 72 hours. Here is the method:
(§1) Various cancer cell lines (listed in table 1) were plated at a density of 1000-5000 cells/well in 96-well plates in 90111 growth medium containing 10% FCS, 100 units/ml penicillin and 100 μg/ml streptomycin. Inhibitors were added a day later in 10 μl of 1% DMSO in DDW to obtain final concentrations of 0, 0.1, 0.3, 1, 3, and 10 μM. The final concentration of DMSO (0.1% DMSO) was kept constant in all samples. Medium with inhibitors was refreshed a day and two days later. Following exposure of the cells to the inhibitors for 72 hours at 37° C., the cells were fixed in 0.5% gluteraldehyde in medium for 10 min, washed three times with DDW, once with 0.1M sodium borate buffer pH 8.5 and stained with 1% methylene blue dissolved in 0.1M borate buffer solution for 60 min. Excess dye was washed out and cell-bound dye was eluted with 200 μl/well of 0.1 M HCl. The optical density value was read at 620 nm in ELISA plate reader. The data was analyzed in Microsoft Excel, using the vehicle control as 100% proliferation. The assays were performed in triplicates. The values in table 1 represent IC50 values derived from the dose-dependent growth curves obtained.
(§2) Compounds 6, 7, 8, and 9 were tested for their inhibitory potential in cell proliferation assay. In this assay cells were exposed to increasing concentrations of the molecules (at 0.1% DMSO in all wells) a day after seeding. Medium and inhibitors were refreshed every day, and following three days of treatment, cells were fixed and stained with methylene-Blue. IC50 values were determined from the curves of the optical density against compound concentration. The assay was performed in triplicates.

Test [3] concerns HT29. Briefly: Proliferation assay HT29. In kind it is cell-based. The note with it: Homo sapiens, HT-29, Colon, 72 hours. As for the experimental part: as §1, §2
Test [4] has as its system MDA MB 468. In words: Proliferation assay MDA MB 468. In kind it is cell-based. The note with it: Homo sapiens, Breast, 72 hours. As for the experimental part: as §1, §2
The subject of test [5] is PC3-MM2. Briefly: Proliferation assay PC3-MM2. In kind it is cell-based. The note with it: Homo sapiens, PC3MM2, Prostate, 72 hours. As for the experimental part:
as §1, §2

For test [6], the system named is LIM 1899. In words: Proliferation assay LIM 1899. In kind it is cell-based. The note with it: Colon, 72 hours. Here is the method: as §1, §2
Test [7] has as its system MO59K. Briefly: Proliferation assay MO59K. In kind it is cell-based. The note with it: Glioma, 72 hours. As for the experimental part: as §1, §2
The subject of test [8] is T24P. Briefly: Proliferation assay T24P. Type of test: cell-based. The note with it: Bladder, 72 hours. As for the experimental part: as §1, §2
The subject of test [9] is MO59J. In words: Proliferation assay MO59J. Type of test: cell-based. The note with it: Glioma, 72 hours. As for the experimental part: as §1, §2
The test system of test [10] is MCF-7. In words: Proliferation assay MCF-7. In kind it is cell-based. The note with it: Homo sapiens, MCF7, Breast, 72 hours. Here is the method:
as §1, §2

The subject of test [11] is QG56. In words: Proliferation assay QG56. In kind it is cell-based. The note with it: Homo sapiens, QG-56, Lung, 72 hours. Here is the method: as §1, §2
Test [12] deals with IRS1. In words: IRS1 Ser-phosphorylation and IRS1 levels in MCF7 cells. Type of test: cell-based. The note with it: breast cancer MCF7 cells. Here is the method: Tyrosine autophosphorylation of the β-subunit of IGF1R as well as downstream signaling induced by IGF1R were assayed in breast cancer MCF7 cells. Tyrosine autophosphorylation of the EGFR and the EGFR signaling was assayed in prostate cancer PC3 cells. Tyrosine autophosphorylation of the PDGFR and its signaling was assayed in fibroblasts overexpres sing PDGFR. Tyro sine autophosphorylation of the IR and its signaling was assayed in fibroblasts overexpressing IR. Cells were seeded in 6-well plates (MCF7-250,000 cells/well, PC3-150,000 cells/well, fibroblasts-140,000 cells/well) and 24 hours later medium was replaced by serum-free medium (DMEM supplemented with 100 units/ml penicillin and 100 μg/ml streptomycin). Following 20 hours of serum-starvation medium was replaced with medium containing various concentrations of the inhibitors in 0.1% DMSO for additional 4 hours. Cells were then stimulated for 5 min with 50 ng/ml IGF-1 (MCF7 cells), 20 ng/ml EGF (PC3 cells), 50 ng/ml PDGF (fibroblasts overexpressing PDGFR) or 100 nM insulin (fibroblasts overexpressing IR), washed twice with PBS and lysed by boiling sample buffer (10% glycerol, 50 mM Tris-HCl, pH 6.8, 3% SDS, and 5%, β-mercaptoethanol). Equal amounts of protein per lane were separated by 8% SDS-PAGE and transferred to a nitrocellulose membrane (Sartorius AG). Phosphorylated proteins were immunoblotted with anti-phospho-IGF1R (phosphor-IGF1R), anti-phosphotyrosine-IRS1 (phospho-IRS1), anti-phospho(T308)Akt (phospho-PKB), anti-phospho-Erk (phospho-ERK), anti-phosphotyrosine 4G10&PY20 (pY-EGFR or pY-PDGFR), anti-phospho-Ser^636/639-IRS1 (pS^636/639-IRS1) and anti-phospho-STAT3 (phospho-STAT3) antibodies. Detection was performed with horseradish peroxidase-conjugated secondary antibody using the ECL system. Blots were then stripped of antibodies, blocked with TBST with 5% low fat milk and re-probed with antibodies detecting both the phosphorylated and the non-phosphorylated corresponding proteins e.g. IGF1Rβ, IRS1, PKB, ERK, IRβ, PDGFR and Stat3.
(§3) In addition, lysates were prepared from cells exposed to inhibitors at various concentrations for 24 hours in the presence or the absence of FCS without stimulation. Lysate preparation and western blot were the same as described above. Apoptosis was detected by immunoblotting with rabbit anti-PARP antibodies.

Test [13] has as its system IRS1. In words: IRS1 Ser-phosphorylation and IRS1 levels in A2780 cells. Type of test: cell-based, human. The note with it: ovarian cancer A2780 cells. Here is the method:
as §3

What is called IC50 is the concentration needed to halve the response being measured. A high value points to lower potency. Regarding `N#C/C(=C\c1cc(O)c(O)c(Br)c1)C(=S)NCc1cc(O)c(O)c(Br)c1` [Compound 6], in [1], the “Inhibition of ovarian tumor growth, comparative study” value (from here on “Inhibition of ovarian tumor growth”) turned out to be 33%. Moreover, the IC50 in test [2] is more than 10 µM; in test [3], more than 10 µM; in test [4] it was more than 10 µM; in test [5] it was more than 10 µM; in test [6] it was more than 10 µM; in test [7], 6.8 µM. Further, the IC50 was more than 10 µM in test [8], 8.3 µM in [9], 2.1 µM in test [10] and more than 10 µM in [11]. Further, in [12], the “Cellular levels of IRS1” value is reported as “has no effect”.

For `Oc1cc(CNC(=S)/C=C/c2cc(O)c(O)c(Br)c2)cc(O)c1O` [Compound 9], the “Inhibition of ovarian tumor growth” value in test [1] was “approximately 90%”. For the same molecule, the IC50 in test [2] turned out to be 4.7 µM; in test [3] it was 1.5 µM; in test [4], 7.2 µM; in [5], 6.9 µM; in [6], 2 µM; in test [7], 1.4 µM. The IC50 in test [8] amounted to 1.4 µM; in test [9], 0.9 µM; in test [10], 2.5 µM; in [11] it was 2 µM. Moreover, the “Cellular IRS1 levels” value in [13] is recorded as “a decrease in cellular IRS1 levels”. For the same molecule, the “IRS1 Ser-phosphorylation (shift up of IRS1 band)” value in test [13] is on record as “induced Ser-phosphorylation”. The “IRS1 Ser-phosphorylation” value in test [12] is given as “trigger IRS1-ser phosphorylation”.

In the case of `N#C/C(=C\c1cc(O)c(O)c(I)c1)C(=S)NCc1cc(O)c(O)c(O)c1` [Compound 8], the “Inhibition of ovarian tumor growth” value in [1] is listed as “approximately 90%”. Further, in [1], the “Growth inhibition of ovarian cancer A2780 tumors” value came to 87%. The “Growth inhibition of ovarian A2780 tumors” value in test [1] (tumors larger than 50 mm^3 at start) is 82%; in [1] (tumors larger than 470 mm^3 at start), “approximately 85%”. Further, the IC50 came to 7.7 µM in test [2]; 6.1 µM in [3]; 5.8 µM in test [4]; 2.1 µM in test [5]; 7.1 µM in test [6]; 0.9 µM in test [7]. Moreover, the IC50 is 0.9 µM in test [8], 1.6 µM in test [9], 2.8 µM in [10] and 4.4 µM in test [11]. In addition, the “Cellular IRS1 levels” value in test [13] was “a decrease in cellular IRS1 levels”. The “IRS1 Ser-phosphorylation (shift up of IRS1 band)” value in [13] was “induced Ser-phosphorylation”. For the same molecule, the “IRS1 Ser-phosphorylation” value in test [12] is given as “trigger IRS1-ser phosphorylation”.

As to `N#C/C(=C\c1cc(O)c(O)c(Br)c1)C(=S)NCc1cc(O)c(O)c(O)c1` [Compound 7], the “Inhibition of ovarian tumor growth” value in [1] is given as “approximately 90%”. For the same molecule, the “Growth inhibition of ovarian cancer A2780 tumors” value in [1] stood at 87%. The IC50 in test [2] is more than 10 µM; in test [3] it was 6.8 µM; in [4] it was more than 10 µM; in [5], 2.6 µM; in test [6], 7.6 µM; in test [7] it was 0.7 µM. For the same molecule, the IC50 was 1.2 µM in test [8], 2.1 µM in test [9], 4.8 µM in test [10] and 5.2 µM in test [11]. The “Cellular IRS1 levels” value in test [13] is listed as “a decrease in cellular IRS1 levels”. Moreover, the “IRS1 Ser-phosphorylation (shift up of IRS1 band)” value in test [13] was “induced Ser-phosphorylation”. The “Cellular levels of IRS1” value in test [12] is on record as “induce a decrease in the cellular levels”. In addition, the “IRS1 Ser-phosphorylation” value in [12] is listed as “increase in IRS1 Ser-phosphorylation”.
